Test results: PubChem BioAssay AID330 (DTP/NCI, 2004)
“And” between values parts separate entries of the source, which are not always exact repeats. Identical values can stand only once. Inconclusive results and toxic doses are left out. How the source made its calls: active means survival T/C of 150% or more; inactive means T/C below 125% in these data.

System: P388 leukemia ip, CD2F1 mice, survival T/C
Experiment: NCI In Vivo Anticancer Drug Screen. Data for tumor model P388 Leukemia (intraperitoneal) in CD2F1 (CDF1) mice
Conditions: endpoint: median survival time, higher = longer survival
Procedure, shortened: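 Mice carrying the transplanted tumor received test compound or vehicle. Survival was recorded in each group, and the value is the treated-group measurement divided by that of the vehicle-treated control group.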

[1] = dose: 12.5 mg/kg/injection, schedule: Q01DX005 (ip), vehicle: saline
[2] = dose: 60.0 mg/kg/injection, schedule: Q01DX005 (ip), vehicle: saline with Tween-80
[3] = dose: 120.0 mg/kg/injection, schedule: Q01DX005 (ip), vehicle: saline with Tween-80
[4] = dose: 240.0 mg/kg/injection, schedule: Q01DX005 (ip), vehicle: saline with Tween-80
[5] = dose: 50.0 mg/kg/injection, schedule: Q01DX005 (ip), vehicle: saline with Tween-80
[6] = dose: 100.0 mg/kg/injection, schedule: Q01DX005 (ip), vehicle: saline with Tween-80
[7] = dose: 50.0 mg/kg/injection, schedule: Q01DX009 (ip), vehicle: saline
[8] = dose: 100.0 mg/kg/injection, schedule: Q04DX002 (ip), vehicle: saline with Tween-80
[9] = dose: 50.0 mg/kg/injection, schedule: Q01DX009 (ip), vehicle: saline with Tween-80

Measured: T/C

NCCC[Se]CC(N)C(=O)O (configuration not stated)
inactive: [1] 100 % of control | dose: 25.0 mg/kg/injection, schedule: Q01DX005 (ip), vehicle: saline 102 % of control | dose: 25.0 mg/kg/injection, schedule: Q04DX003 (ip), vehicle: saline 95 % of control | dose: 50.0 mg/kg/injection, schedule: Q01DX005 (ip), vehicle: saline 104 % of control | dose: 50.0 mg/kg/injection, schedule: Q04DX003 (ip), vehicle: saline 111 % of control | dose: 100.0 mg/kg/injection, schedule: Q01DX005 (ip), vehicle: saline 102 % of control | dose: 100.0 mg/kg/injection, schedule: Q04DX003 (ip), vehicle: saline 110 % of control and 119 % of control

Cn1c2ccccc2c(=O)c2c(O)cc3c(c21)N=CC(C)(C)O3
inactive: [2] 96 % of control | [3] 93 % of control | [4] 93 % of control

O=C1c2ccccc2C(=O)N1CCP(=O)(c1ccccc1)c1ccccc1
inactive: dose: 12.5 mg/kg/injection, schedule: Q01DX009 (ip), vehicle: other 98 % of control | dose: 25.0 mg/kg/injection, schedule: Q01DX009 (ip), vehicle: other 106 % of control | dose: 50.0 mg/kg/injection, schedule: Q01DX009 (ip), vehicle: other 98 % of control | dose: 100.0 mg/kg/injection, schedule: Q01DX009 (ip), vehicle: other 91 % of control | dose: 200.0 mg/kg/injection, schedule: Q01DX009 (ip), vehicle: other 91 % of control

COC(=O)C(Cc1ccccc1)NCCNC(C)=O (configuration not stated)
inactive: dose: 100.0 mg/kg/injection, schedule: Q04DX003 (ip), vehicle: saline with Tween-80 95 % of control | dose: 200.0 mg/kg/injection, schedule: Q04DX003 (ip), vehicle: saline with Tween-80 95 % of control

O=C(NN1C(=O)CSC1c1ccc(Cl)cc1Cl)c1ccncc1 (configuration not stated)
inactive: dose: 25.0 mg/kg/injection, schedule: Q01DX005 (ip), vehicle: saline with Tween-80 101 % of control | [5] 98 % of control | [6] 93 % of control | [3] 100 % of control | [4] 90 % of control

CN(C)Nc1ncnc2c1ncn2C
inactive: [5] 103 % of control | [6] 100 % of control | dose: 200.0 mg/kg/injection, schedule: Q01DX005 (ip), vehicle: saline with Tween-80 97 % of control

CC(C)(C)C(=N)N
inactive: dose: 12.5 mg/kg/injection, schedule: Q01DX009 (ip), vehicle: saline 100 % of control | dose: 25.0 mg/kg/injection, schedule: Q01DX009 (ip), vehicle: saline 108 % of control | [7] 102 % of control

COc1cc([C@@H]2c3cc4c(cc3[C@H](OC(=O)CCCC(=O)O)[C@H]3COC(=O)[C@H]23)OCO4)cc(OC)c1OC
inactive: dose: 3.12 mg/kg/injection, schedule: Q01DX005 (ip), vehicle: saline 100 % of control | dose: 6.25 mg/kg/injection, schedule: Q01DX005 (ip), vehicle: saline 104 % of control | [1] 110 % of control and 122 % of control

COC1=CC(C)(C)C(=O)S1
inactive: dose: 25.0 mg/kg/injection, schedule: Q04DX002 (ip), vehicle: saline with Tween-80 100 % of control | dose: 50.0 mg/kg/injection, schedule: Q04DX002 (ip), vehicle: saline with Tween-80 96 % of control | [8] 100 % of control

CCOC(=O)C(=CNc1cccc2cccnc12)C(=O)OCC
inactive: [8] 97 % of control | dose: 200.0 mg/kg/injection, schedule: Q04DX002 (ip), vehicle: saline with Tween-80 99 % of control | dose: 400.0 mg/kg/injection, schedule: Q04DX002 (ip), vehicle: saline with Tween-80 99 % of control

N=C(N)SCN1C(=O)c2ccccc2C1=O
inactive: dose: 6.25 mg/kg/injection, schedule: Q01DX009 (ip), vehicle: saline with Tween-80 114 % of control | dose: 12.5 mg/kg/injection, schedule: Q01DX009 (ip), vehicle: saline with Tween-80 107 % of control | dose: 25.0 mg/kg/injection, schedule: Q01DX009 (ip), vehicle: saline with Tween-80 123 % of control | [9] 122 % of control

O=C(NC(CSSCC(NC(=O)OCc1ccccc1)C(=O)O)C(=O)O)OCc1ccccc1 (configuration not stated)
inactive: dose: 100.0 mg/kg/injection, schedule: Q04DX003 (ip), vehicle: other 100 % of control | dose: 200.0 mg/kg/injection, schedule: Q04DX003 (ip), vehicle: other 100 % of control | dose: 400.0 mg/kg/injection, schedule: Q04DX003 (ip), vehicle: other 100 % of control

Nc1nc(N)c2nc(/C(Cl)=N/O)cnc2n1
inactive: dose: 20.0 mg/kg/injection, schedule: Q01DX009 (ip), vehicle: saline 108 % of control | dose: 40.0 mg/kg/injection, schedule: Q01DX009 (ip), vehicle: saline 105 % of control | dose: 80.0 mg/kg/injection, schedule: Q01DX009 (ip), vehicle: saline 103 % of control

CC(C)(C(=O)O)C(C)(C)C(=O)O
inactive: dose: 1.56 mg/kg/injection, schedule: Q01DX001 (ip), vehicle: saline 102 % of control | dose: 3.12 mg/kg/injection, schedule: Q01DX001 (ip), vehicle: saline 101 % of control

C[Si](C)(C)CCCn1ccc(=O)[nH]c1=O
inactive: [2] 98 % of control | [3] 92 % of control | [4] 88 % of control

CC/C(=N\NS(=O)(=O)c1ccc(C)cc1)c1ccc(OC)c(C)c1
inactive: [9] 105 % of control | [7] 104 % of control | dose: 100.0 mg/kg/injection, schedule: Q01DX009 (ip), vehicle: saline with Tween-80 97 % of control | dose: 200.0 mg/kg/injection, schedule: Q01DX009 (ip), vehicle: saline with Tween-80 99 % of control | dose: 200.0 mg/kg/injection, schedule: Q01DX009 (ip), vehicle: saline 96 % of control

CN(C)CCC1C2CC3CC(C2)CC1C3 (configuration not stated)
inactive: [7] 94 % of control | dose: 100.0 mg/kg/injection, schedule: Q01DX009 (ip), vehicle: saline 94 % of control

CC1=NN(c2ccc(S(=O)(=O)O)cc2)C(=O)/C1=C/c1ccc(Cl)cc1
inactive: dose: 50.0 mg/kg/injection, schedule: Q04DX003 (ip), vehicle: saline sonified 100 % of control | dose: 100.0 mg/kg/injection, schedule: Q04DX003 (ip), vehicle: saline sonified 100 % of control | dose: 200.0 mg/kg/injection, schedule: Q04DX003 (ip), vehicle: saline sonified 95 % of control
